# Source: ChEMBL document CHEMBL2021890, “A new class of prolylcarboxypeptidase inhibitors, part 1: discovery and evaluation” (Bioorg Med Chem Lett, 2012)
# Tests used:
# [1] = molecular target: T1, Lysosomal Pro-X carboxypeptidase (Mus musculus, UniProt Q7TMR0); assay: Inhibition of mouse PrCP
# T1 sequence (Q7TMR0 whole entry): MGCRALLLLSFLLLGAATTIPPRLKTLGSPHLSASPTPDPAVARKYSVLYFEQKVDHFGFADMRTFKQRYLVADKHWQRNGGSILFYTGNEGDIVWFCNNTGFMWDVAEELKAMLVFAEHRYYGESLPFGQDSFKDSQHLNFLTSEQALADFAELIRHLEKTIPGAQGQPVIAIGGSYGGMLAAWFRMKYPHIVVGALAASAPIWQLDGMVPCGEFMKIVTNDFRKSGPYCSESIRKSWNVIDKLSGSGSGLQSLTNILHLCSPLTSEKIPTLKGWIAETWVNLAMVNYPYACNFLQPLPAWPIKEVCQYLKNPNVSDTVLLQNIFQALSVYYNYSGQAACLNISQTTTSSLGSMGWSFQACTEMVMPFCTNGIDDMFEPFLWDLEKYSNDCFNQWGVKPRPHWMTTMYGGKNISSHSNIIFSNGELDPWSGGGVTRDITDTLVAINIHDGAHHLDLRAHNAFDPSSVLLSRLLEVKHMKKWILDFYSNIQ
# [2] = Clearance in mouse at 0.5 mg/kg, iv and 1 mg/kg, po; assay type: ADME, organism-based; settings: in vivo
# [3] = Volume of distribution in mouse at 0.5 mg/kg, iv and 1 mg/kg, po; assay type: ADME, organism-based; settings: in vivo
# [4] = Half life in mouse at 0.5 mg/kg, iv and 1 mg/kg, po; assay type: ADME, organism-based; settings: in vivo
# Mus musculus = assay: Dose normalized AUC in mouse at 1 mg/kg, po; assay type: ADME, organism-based; set-up: dose 1 mg/kg, route oral; settings: in vivo
# [5] = Oral bioavailability in mouse at 1 mg/kg; assay type: ADME, organism-based; settings: in vivo
# [6] = Plasma protein binding in 10% human plasma assessed as percentage unbound; assay type: ADME, cell-free
# [7] = Plasma protein binding in 10% mouse plasma assessed as percentage unbound; assay type: ADME, cell-free
# [8] = Metabolic stability in human liver microsomes after 30 mins by LC/MS analysis; assay type: ADME, Microsome; settings: read-out: Stability
# [9] = Metabolic stability in mouse liver microsomes after 30 mins by LC/MS analysis; assay type: ADME, Microsome; settings: read-out: Stability
Structure (SMILES),IC50 [1] [µM],clearance [2] [mL/min/kg],Vd [3] [L/kg],half-life [4] [h],AUC/dose (Mus musculus) [µM·kg·h/mg],bioavailability [5] [%],fraction unbound [6],fraction unbound [7],remaining at 0.5 h [8] [%],remaining at 0.5 h [9] [%]
Cc1cc(C2CCN(C(=O)[C@@H]3CN(C(C)(C)C)C[C@H]3c3ccc(F)cc3F)CC2)n(-c2cccc(Cl)c2)n1,0.013,–,–,–,–,–,–,–,–,–
Cc1cc(C2CCN(C(=O)[C@@H]3CN(C(C)(C)C)C[C@H]3c3ccc(F)cc3F)CC2)n(-c2ccc(F)cc2)n1,0.03,–,–,–,–,–,–,–,–,–
Cc1cc(-n2nc(C3CCN(C(=O)[C@@H]4CN(C(C)(C)C)C[C@H]4c4ccc(F)cc4F)CC3)nc2C)ccc1Cl,0.495,111,14,1.7,0.05,18,0.11,0.07,6,36
Cc1nc(C2CCN(C(=O)[C@@H]3CNC[C@H]3c3ccc(F)cc3F)CC2)n(-c2ccc(F)c(Cl)c2)n1,0.032,–,–,–,–,–,–,–,49,57
Cc1nc(C2CCN(C(=O)[C@@H]3CNC[C@H]3c3ccc(F)cc3F)CC2)n(-c2cc(Cl)ccc2Cl)n1,0.03,–,–,–,–,–,–,–,58,56
Cc1nc(C2CCN(C(=O)[C@@H]3CNC[C@H]3c3ccc(F)cc3F)CC2)n(-c2ccc(Cl)c(Cl)c2)n1,0.049,–,–,–,–,–,–,–,59,58
Cc1nc(C2CCN(C(=O)[C@@H]3CNC[C@H]3c3ccc(F)cc3F)CC2)n(-c2ccc(Cl)cc2)n1,0.194,–,–,–,–,–,0.12,0.07,53,82
Cc1nc(C2CCN(C(=O)[C@@H]3CN(C(C)(C)C)C[C@H]3c3ccc(F)cc3F)CC2)n(-c2ccc(Cl)cc2)n1,0.026,96,14,1.9,0.16,48,0.25,0.49,35,46
Cc1nc(C2CCN(C(=O)[C@@H]3CN(C(C)(C)C)C[C@H]3c3ccc(F)cc3F)CC2)n(-c2ccc(F)c(F)c2)n1,0.034,–,–,–,–,–,0.7,0.54,57,47
Cc1cc(C2CCN(C(=O)[C@@H]3CN(C(C)(C)C)C[C@H]3c3ccc(F)cc3F)CC2)n(-c2cc(F)ccc2Cl)n1,0.0086,–,–,–,–,–,–,–,–,–

# Now those with a lower IC50 [1], led by results:
IC50 [1] [µM],clearance [2] [mL/min/kg],Vd [3] [L/kg],half-life [4] [h],AUC/dose (Mus musculus) [µM·kg·h/mg],bioavailability [5] [%],fraction unbound [6],fraction unbound [7],remaining at 0.5 h [8] [%],remaining at 0.5 h [9] [%],Structure (SMILES)
0.0023,65,17,3.1,0.17,37,–,–,–,–,Cc1cc(C2CCN(C(=O)[C@@H]3CN(C(C)(C)C)C[C@H]3c3ccc(F)cc3F)CC2)n(-c2ccc(Cl)cc2C)n1
0.0011,165,24,2.1,0.01,5.5,0.05,0.04,< 1,1,Cc1cc(C2CCN(C(=O)[C@@H]3CN(C(C)(C)C)C[C@H]3c3ccc(F)cc3F)CC2)n(-c2ccc(C)c(Cl)c2)n1
0.0029,80,20,3.1,0.1,28,0.04,0.06,1,18,Cc1cc(C2CCN(C(=O)[C@@H]3CN(C(C)(C)C)C[C@H]3c3ccc(F)cc3F)CC2)n(-c2ccc(Cl)c(C)c2)n1
0.0035,41,14,3.9,0.24,29,0.11,0.17,28,37,Cc1cc(C2CCN(C(=O)[C@@H]3CN(C(C)(C)C)C[C@H]3c3ccc(F)cc3F)CC2)n(-c2ccc(Cl)cc2)n1
